Peptide text beside a SMILES is read from it. * marks the point of attachment. Cbz = O=C(OCc1ccccc1)*

One experiment has as its target T1, FIEL1/PIAS4 interaction (Homo sapiens, UniProt O15033).
T1 construct: made in house; host or cells: 293T cells (FIEL1)
T1 sequence (O15033 1-789 isoform O15033-2): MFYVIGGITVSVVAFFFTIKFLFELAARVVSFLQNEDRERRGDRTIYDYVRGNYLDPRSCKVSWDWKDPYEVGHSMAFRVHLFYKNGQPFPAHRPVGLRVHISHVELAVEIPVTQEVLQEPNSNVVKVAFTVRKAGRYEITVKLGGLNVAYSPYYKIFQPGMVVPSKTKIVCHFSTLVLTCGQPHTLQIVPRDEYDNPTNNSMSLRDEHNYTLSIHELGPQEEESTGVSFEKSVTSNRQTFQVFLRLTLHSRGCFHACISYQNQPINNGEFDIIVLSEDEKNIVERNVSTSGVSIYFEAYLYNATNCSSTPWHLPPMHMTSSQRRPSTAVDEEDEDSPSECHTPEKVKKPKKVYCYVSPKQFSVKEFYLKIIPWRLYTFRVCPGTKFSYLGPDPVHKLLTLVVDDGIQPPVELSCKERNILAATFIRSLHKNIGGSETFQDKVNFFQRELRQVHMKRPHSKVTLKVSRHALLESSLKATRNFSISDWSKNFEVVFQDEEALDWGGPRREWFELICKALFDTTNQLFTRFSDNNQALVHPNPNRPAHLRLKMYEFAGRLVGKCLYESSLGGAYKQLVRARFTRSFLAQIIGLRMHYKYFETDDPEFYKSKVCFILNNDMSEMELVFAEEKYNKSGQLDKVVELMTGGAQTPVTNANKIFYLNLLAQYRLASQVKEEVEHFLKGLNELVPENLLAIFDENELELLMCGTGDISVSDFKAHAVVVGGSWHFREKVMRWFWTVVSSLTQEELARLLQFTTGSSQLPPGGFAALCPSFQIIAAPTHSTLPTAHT
In words: In vitro drug binding assay: PIAS4 pull-down on drug-bound FIEL1 beads. As to conditions: FIG. 7. The procedure: (§1) FIG. 7A. […] FIG. 7B. Structures of the BC-1480 backbone and lead compound BC-1485. FIG. 7C. FIEL1 protein was HIS-purified from FIEL1 expression in 293T cells using cobalt beads. Beads were then extensively washed prior to exposure to BC-1480 or BC-1485 at different concentrations (10^−4 to 100 μM). Purified PIAS4 protein was then incubated with drug-bound FIEL1 beads overnight. Beads were washed, and proteins were eluted and resolved on SDS-PAGE. The relative amounts of PIAS4 detected in the pull-downs was normalized to loading and quantified (n=2). FIG. 7D. MLE cells were exposed to BC-1480 or BC-1485 at various concentrations for 18 h. Cells were then collected and immunoblotted. FIGS. 7E-J. C57BL/6J mice were administered with bleomycin (0.05 U) for 7-21 days. Compounds BC-1480 and BC-1485 were given to mice through drinking water with an estimated dose of 5 mg/kg/d. Mice were euthanized, and lungs were lavaged with saline, harvested, and then homogenized. Lavage proteins, CXCL1, and total cell count were measured in FIGS. 7E-G. H. Survival studies of mice that were given bleomycin and compound treatments. Mice were carefully monitored over time; moribund, preterminal animals were immediately euthanized and recorded as deceased. Kaplan-Meier survival curves were generated using SPSS software (p<0.01 compared to Vehicle). Vehicle: n=24, BC-1480: n=13, BC-1485: n=12. FIG. 7I. Hydroxyproline contents were measured in lungs from 7, 14, and 21d after bleomycin challenge. FIG. 7J. Trichrome staining was performed on lung samples from E. Original magnification, ×10. *p<0.05 compared to Vehicle (t-test). Data are an average of two experiments (FIGS. 7E-J, 4-8 mice/group)
FIEL1 protein was HIS-purified from FIEL1 expression 293T cells using cobalt beads. Beads were then extensively washed prior to exposure to BC-1480 or BC-1485 at different concentrations (10^−4 to 100 μM). Purified recombinant PIAS4 protein was then incubated with drug-bound FIEL1 beads overnight. […] The relative amounts of PIAS4 detected in the pull-downs were normalized to loading and quantified.

Experiment [1] deals with α-SMA expression in MRC5 cells. In words: α-SMA expression in MRC5 cells co-treated with TGFβ. The format is cell-based, human. The note with it: Homo sapiens; MRC5 cells, TGFβ 2 ng/ml, 18 h; FIG. 15D; read-out: IC50 for decrease of α-SMA expression. As to the method:
(§2) FIG. 15A. Diagram of the BC-1485 synthesis process. FIGS. 15B-15C. Docking studies of the lead compound, BC-1485, interacting with the FIEL1-HECT domain. FIG. 15D. MRC5 cells were treated with the compound at various doses; cells were also co-treated with TGFβ at 2 ng/ml. 18 h later, cells were collected and assayed for α-SMA expression. FIG. 15E. MRC5 cells were seeded in 35 mm glass bottom dishes before co-treatment with TGFβ at 2 ng/ml and BC-1480 or BC1485 at 5μM. FIG. 15F. PIAS4 protein half-life determination after BC-1480 or BC1485 treatment at 5μM for 18 h. FIG. 15G. PIAS4 and KIAA0317 mRNA analysis after BC1485 treatment for 18 h.
MLE cells were cultured in Dulbecco's Modified Eagle Medium-F12 (Gibco) supplemented with 10% fetal bovine serum (DMEM-10). 293T cells were cultured in Dulbecco's Modified Eagle Medium (Gibco) supplemented with 10% fetal bovine serum (DMEM-10). MRC5 cells were cultured in Eagle's Minimum Essential Medium (Gibco) supplemented with 10% fetal bovine serum (EMEM-10). For protein expression in MLE cells, nucleofection was used following Amaxa's protocol. For protein overexpression in 293T cells, Fugene6HD transfection reagents were used following the manufacturer's protocol. For protein expression in MRC5 cells, MRC-5 Cell Avalanche™ Transfection Reagent was used following manufacturer's protocol. Cells were treated with TGFβ at 0-2 ng/ml for 0-18 h. For FIEL1, PKCξ, or GSK3β knockdown studies in cells, scramble shRNA, KIAA0317, PKCξ, or GSK3β shRNA were used to transfect cells for 48 h. For drug treatment, compounds were solubilized in DMSO before being added to the cells for up to 18 h. Cell lysates were prepared by brief sonication in 150 mM NaCl, 50 mM Tris, 1.0 mM EDTA, 2 mM dithiothreitol, 0.025% sodium azide, and 1 mM phenylmethylsulfonyl fluoride (Buffer A) at 4° C. For half-life study, MLE cells were exposed to cycloheximide (40 μg/ml) in a time dependent manner for up to 8 h. Cells were then collected and immunoblotted.

Experiment [2] has as its system bleomycin-induced lung injury in C57BL/6J mice. Briefly: Bleomycin lung fibrosis model in mice. As to conditions: bleomycin 0.05 U i.t., 7-21 days; estimated 5 mg/kg/d. The format is in vivo. As to the method:
as §1
C57BL/6J mice were administered i.t. with bleomycin (0.05 U) for 7-21 days. Compounds BC-1480 and BC-1485 were given to mice through drinking water with an estimated dose of 5 mg/kg/d. Mice were then euthanized, and lungs were lavaged with saline, harvested, and then homogenized. Lavage IL-6 was measured in (FIG. 16A). Lavage cells were also processed for Wright-Giemsa stain; Lavage macrophages, neutrophils and lymphocytes were counted and graphed (FIGS. 16B-16D). H&E staining was performed on lung samples from A. Original magnification, ×10. *p<0.05 compared to Vehicle (t test). Data are an average of two experiments (A-E, 4-8 mice/group).
Murine lungs were dried and weighed prior to digestion with HCl. Hydroxyproline concentrations were measuring using methods previously described in Kesava Reddy et al., Clinical Biochemistry, 29(3): 225-229 (1996), and Neuman et al., J. of Biol. Chem., 184(1): 299-306 (1950). Hydroxyproline content was normalized to dry lung weight.
All procedures were approved by the University of Pittsburgh Institutional Animal Care and Use Committee. For fibrosis studies, male C57BL/6J mice were deeply anesthetized using a ketamine/xylazine mixture, and the larynx was well visualized under a fiber optic light source before endotracheal intubation with a 3/400 24-gauge plastic catheter. 10^7 CFU of lentivirus encoding genes for Empty (E), FIEL1, CON shRNA, or KIAA0317 shRNA was given i.t. for 144 h before administration of bleomycin (0.02 U˜0.05 U i.t.) for up to 21 days. Animals were euthanized and assayed for BAL protein, cell count, cytokines, and lung infiltrates. Survival studies were performed on mice that were given bleomycin (0.02 U˜0.05 U i.t.). Mice were carefully monitored over time; moribund, preterminal animals were immediately euthanized and recorded as deceased. For drug studies, mice were deeply anesthetized as above. Bleomycin (0.05 U i.t.) was given i.t. before BC-1480 or BC-1485 (5 mg/kg/d) was administered to the mice through their drinking water. 7-21d later, animals were euthanized and analyzed as above.

The subject of a further experiment is PIAS4. In words: PIAS4 protein half-life study (cycloheximide) in MLE cells. The format is cell-based, murine. The note with it: addition of proteasomal or lysosomal inhibitor; FIG. 9B.
From the text: FIG. 9A. PIAS4 protein half-life study in MLE cells transfected with Empty plasmid or Ubiquitin plasmid. FIG. 9B. PIAS4 protein half-life study with MG132 or Leupeptin. FIG. 9C. Immunoblots showing levels of PIAS4 proteins and V5 after ectopic FIEL1 or UBE3B plasmid expression. FIG. 9D. Immunoblots showing levels of FIEL1 proteins after ectopic FIEL1 plasmid expression in MLE, HeLa, and 293T cells. FIG. 9E. Immunoblots showing levels of PIAS4 proteins and V5 after ectopic FIEL1 plasmid expression in HeLa and 293T cells. FIG. 9F. MLE cells were transfected with an inducible control or FIEL1 plasmid under control of exogenous doxycycline. Cells were treated with doxycycline in a dose dependent manner. Cells were then collected and cell lysates were immunoblotted for FIEL1 and PIAS4. FIG. 9G. MRC5 cells were exposed to TGFβ for 24 h before being assayed for PIAS4 and FIEL1 protein half-lives.
as §2
MLE cells were cultured in Dulbecco's Modified Eagle Medium-F12 (Gibco) supplemented with 10% fetal bovine serum (DMEM-10). 293T cells were cultured in Dulbecco's Modified Eagle Medium (Gibco) supplemented with 10% fetal bovine serum (DMEM-10). MRC5 cells were cultured in Eagle's Minimum Essential Medium (Gibco) supplemented with 10% fetal bovine serum (EMEM-10). For protein expression in MLE cells, nucleofection was used following Amaxa's protocol. For protein overexpression in 293T cells, Fugene6HD transfection reagents were used following the manufacturer's protocol. […]

On to `O=C(O)c1ccc(NS(=O)(=O)c2ccc3[nH]c(=O)[nH]c3c2)cc1` [BC-1480, 4-(2-oxo-2,3-dihydro-1H-benzo[d]imidazole-5-sulfonamido)benzoic acid], for which the “inhibition of FIEL1 and PIAS4 interaction” value at FIEL1/PIAS4 interaction is “inhibition of FIEL1 and PIAS4 interaction”. In addition, in experiment [1], the concentration for half-maximal inhibition (IC50) is roughly 4 µM. For the same molecule, the “lung (pulmonary) fibrosis” value in experiment [2] was “inhibition of pulmonary fibrosis”. As to `CC(=O)N[C@@H](CC(C)C)C(=O)N[C@@H](CC(C)C)C(=O)N[C@H](C=O)CCCNC(=N)N` [Leupeptin], in the experiment on PIAS4, the PIAS4 protein half-life result was “an effect unobserved”. On to `CC(C)C[C@@H](C=O)NC(=O)[C@H](CC(C)C)NC(=O)[C@H](CC(C)C)NC(=O)OCc1ccccc1` [MG132] (Cbz-Leu-Leu-Leu-aldehyde), for which the PIAS4 protein half-life entry in the experiment on PIAS4 is on record as “significantly increased”.
